According to ChEMBL document CHEMBL1201862, “PubChem BioAssay data set” (2004):
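Step 1: Grow cells in 96-well plates. Step 2: Expose to compound for 48 hours at 5 concentrations. Step 3: Interpolate endpoints linearly; if unreached, use highest concentration. The concentration for 50% growth inhibition is given as GI50.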 Activity calls are given as the source filed them. Cut-off read from the data, not from the text of the source: active = GI50 up to about 1.1 µM and inactive = higher.

Experiments:
Test in all cases: NCI anticancer screen, dose series, 48 h
[1] = tested on: K562
[2] = tested on: MCF7
[3] = tested on: M14
[4] = tested on: Hs-578T
[5] = tested on: SF-268
[6] = tested on: OVCAR-4
[7] = tested on: Malme-3M
[8] = tested on: NCI-H23
[9] = tested on: HL-60
[10] = tested on: U-251
[11] = tested on: IGROV-1
[12] = tested on: COLO 205
[13] = tested on: NCI-H460
[14] = tested on: SF-539
[15] = tested on: BT-549
[16] = tested on: RXF 393
[17] = tested on: CCRF-CEM
[18] = tested on: HT-29
[19] = tested on: PC-3
[20] = tested on: SR

Measured: GI50

CC(C)(C)COS(=O)OCC(C)(C)C
inactive: [1] > 100 µM | [2] > 100 µM | [3] > 100 µM | [4] > 100 µM | [5] > 100 µM | [6] > 100 µM | [7] > 100 µM | [8] > 100 µM | [9] > 100 µM | [10] > 100 µM | [11] > 100 µM | [12] > 100 µM | [13] > 100 µM | [14] > 100 µM | [15] > 100 µM | [16] > 100 µM | [17] > 100 µM | [18] > 100 µM | [19] > 100 µM | [20] > 100 µM

CC(=O)NC(CS)C(=O)O (stereo not given)
inactive: [1] 21700 µM | [2] 25200 µM | [3] 7360 µM | [4] 18700 µM | [5] 20900 µM | [6] 50900 µM | [7] 8220 µM | [8] 20200 µM | [9] 34200 µM | [10] 19300 µM | [11] 2610 µM | [12] 14600 µM | [13] 18400 µM | [14] 26100 µM | [15] > 100 µM | [16] 21900 µM | [17] > 100 µM | [18] 14700 µM | [19] 33200 µM | [20] 44100 µM

O=C(NC(=O)c1c(F)cccc1F)Nc1cccc(Oc2ncc(Cl)cn2)c1
inactive: [1] 3.1 µM | [2] > 100 µM | [3] > 51.2 µM | [4] 35.2 µM | [5] 36.5 µM | [6] > 69 µM | [7] > 68.4 µM | [8] > 100 µM | [9] 3.51 µM | [10] 33.2 µM | [11] 33.4 µM | [12] 3.85 µM | [13] 4.51 µM | [14] 23.3 µM | [15] > 24.8 µM | [16] 38.5 µM | [17] 47.1 µM | [18] 4.59 µM | [19] > 100 µM | [20] 6.1 µM

CC(C)(CN1CCCCC1)C(/C=C/c1ccc(Cl)cc1)=N\NC(=O)N/N=C(/C=C/c1ccc(Cl)cc1)C(C)(C)CN1CCCCC1
inactive: [1] 3.39 µM | [2] 4.02 µM | [3] 3.41 µM | [4] 5.9 µM | [5] 5.46 µM | [6] 2.86 µM | [7] 8.38 µM | [8] 2.92 µM | [9] 2.33 µM | [10] 3.37 µM | [11] 2.98 µM | [12] 4.22 µM | [13] 3.21 µM | [14] 3.44 µM | [15] 3.59 µM | [16] 2.64 µM | [17] 2.64 µM | [18] 3.58 µM | [19] 7.24 µM | [20] 2.7 µM

Nc1ccc(Sc2c3ccccc3nc3ccccc23)cc1
inactive: [1] 2.65 µM | [2] 12.4 µM | [3] 15.7 µM | [4] 25.6 µM | [5] 18.5 µM | [6] 12.1 µM | [7] 19.7 µM | [8] 17.7 µM | [9] 2.96 µM | [10] 15.2 µM | [11] 17.7 µM | [12] 11.5 µM | [13] 20.4 µM | [14] 15.6 µM | [15] 14.3 µM | [16] 18.7 µM | [17] 3.28 µM | [18] 15.8 µM | [19] 13.1 µM | [20] 3.74 µM

C[Si](C)(C)C#CCO[Si](C)(C)C
inactive: [1] 30.9 µM | [2] > 74.8 µM | [3] > 74.8 µM | [4] > 100 µM | [5] 34.2 µM | [6] > 100 µM | [7] > 100 µM | [8] 68.7 µM | [9] 31.5 µM | [10] > 100 µM | [11] 16.1 µM | [12] > 54.3 µM | [13] > 100 µM | [14] 21.9 µM | [15] 39.1 µM | [16] > 100 µM | [17] 5.69 µM | [18] 32.9 µM | [19] > 100 µM | [20] 34.1 µM

CCN(CC)c1ccc(/C=C/C(=O)c2cc(C(C)(C)C)c(O)c(C(C)(C)C)c2)cc1
inactive: [1] 8.45 µM | [2] 3.64 µM | [3] 21.2 µM | [4] 5.93 µM | [5] 7.45 µM | [6] 6.76 µM | [7] > 100 µM | [8] 9.77 µM | [9] 3.37 µM | [10] 3.3 µM | [11] 64 µM | [12] 4.62 µM | [13] 14.9 µM | [14] 3.19 µM | [15] 8.24 µM | [16] 2.7 µM | [17] 3.85 µM | [18] 2.71 µM | [19] 9.18 µM | [20] 2.8 µM
